Measured values reported in DBAASP.
Converted amounts (≈) assume the structure as drawn. Blank lines part the entries; values can stand above or below the compound they belong to.

Experiments:
Experiment in all cases: ≥ marks a high value that may be exact or a test limit, other limits are often not marked, values filed in µg/mL are converted to µM
[1] = tested on: Aureobasidium pullulans
[2] = tested on: Bacillus megaterium
[3] = tested on: Bacillus subtilis ATCC 23857
[4] = tested on: Candida albicans ATCC 10231
[5] = tested on: Corynebacterium glutamicum ATCC 13032
[6] = tested on: Escherichia coli ATCC 25922
[7] = tested on: Micrococcus luteus
[8] = tested on: Pseudomonas aeruginosa ATCC 27853
[9] = tested on: Staphylococcus aureus ATCC 9144
[10] = tested on: Candida glabrata ATCC 2001
[11] = tested on: Candida krusei ATCC 6258
[12] = tested on: Candida parapsilosis ATCC 90018
[13] = tested on: Candida tropicalis ATCC 750
[14] = tested on: Staphylococcus aureus ATCC 29213
[15] = tested on: Bacillus subtilis MTCC 2763
[16] = tested on: Escherichia coli MTCC 723
[17] = tested on: Pseudomonas aeruginosa MTCC 2295
[18] = tested on: Staphylococcus aureus ATCC BAA-1720
[19] = tested on: Staphylococcus aureus MTCC 3160
[20] = tested on: Staphylococcus epidermidis ATCC 51625
[21] = tested on: Escherichia coli CCT 1371
[22] = tested on: Staphylococcus aureus ATCC 6535
[23] = tested on: Staphylococcus saprophyticus
[24] = tested on: Bacillus subtilis DELTA
[25] = tested on: Candida parapsilosis
[26] = tested on: Escherichia coli DH5alpha
[27] = tested on: Pseudomonas aeruginosa PAO1
[28] = tested on: Zymomonas mobilis ATCC 10988

SMILES: CC[C@H](C)[C@H](NC(=O)CN)C(=O)N[C@@H](CC(C)C)C(=O)N[C@@H](CC(=O)O)C(=O)N[C@H](C(=O)N[C@@H](CCCCN)C(=O)N[C@@H](CC(N)=O)C(=O)N[C@@H](CCCCN)C(=O)N[C@H](C(=O)N[C@@H](CO)C(=O)N[C@@H](CC(N)=O)C(=O)N[C@@H](CC(C)C)C(=O)N[C@@H](Cc1ccccc1)C(=O)N[C@@H](CCCCN)C(=O)N[C@@H](CCCCN)C(=O)N[C@H](C(=O)N[C@@H](CCCCN)C(=O)NCC(=O)N[C@@H](CCC(=O)O)C(=O)N[C@@H](CCCCN)C(N)=O)[C@@H](C)CC)C(C)C)[C@@H](C)CC [GILDIKNKVSNLFKKIKGEK]
MIC [4]: 250 µM (≈ 568 µg/mL)
MIC [10]: ≥ 500 µM
MIC [11]: ≥ 125 µM
MIC [12]: ≥ 500 µM
MIC [13]: ≥ 500 µM
MIC [6]: > 130 µM
MIC [8]: > 130 µM
MIC [14]: > 130 µM

SMILES: CC[C@H](C)[C@H](NC(=O)[C@H](CC(C)C)NC(=O)[C@H](CCC(N)=O)NC(=O)[C@@H](NC(=O)[C@@H](NC(=O)[C@H](CCCN=C(N)N)NC(=O)[C@H](CCCCN)NC(=O)[C@H](Cc1ccccc1)NC(C)=O)[C@@H](C)CC)C(C)C)C(=O)N[C@@H](CCCCN)C(=O)N[C@@H](CC(=O)O)C(=O)N[C@@H](Cc1ccccc1)C(=O)N[C@@H](CC(C)C)C(=O)N[C@@H](CCCN=C(N)N)C(N)=O [FKRIVQLIKDFLR]
MIC [24]: 11.9 µM (≈ 20.5 µg/mL)
MIC [25]: ≥ 59.7 µM
MIC [26]: ≥ 59.7 µM
MIC [27]: 59.7 µM (≈ 102 µg/mL)
MIC [28]: ≥ 59.7 µM

Results, then the compound that gave them:

MIC [1]: ≥ 52.7 µM
MIC [2]: 3.29 µM (≈ 3.9 µg/mL)
MIC [3]: ≥ 105 µM
MIC [4]: 52.7 µM (≈ 62.4 µg/mL)
MIC [5]: 3.29 µM (≈ 3.9 µg/mL)
MIC [6]: > 211 µM
MIC [7]: ≥ 105 µM
MIC [8]: > 211 µM
MIC [9]: ≥ 211 µM
SMILES: C[C@H](NC(=O)[C@H](CCCCN)NC(=O)[C@H](Cc1c[nH]c2ccccc12)NC(=O)[C@H](Cc1c[nH]c2ccccc12)NC(=O)CNC(=O)[C@@H]1CCCN1C(=O)[C@H](CCCCN)NC(=O)[C@H](CCCCN)NC(=O)CN)C(=O)N[C@@H](CCCCN)C(N)=O [GKKPGWWKAK]

MIC [15]: ≥ 81.5 µM
MIC [16]: ≥ 87.3 µM
MIC [17]: ≥ 116 µM
MIC [18]: 29.1 µM (≈ 25 µg/mL)
MIC [19]: 29.1 µM (≈ 25 µg/mL)
MIC [20]: 23.3 µM (≈ 20 µg/mL)
SMILES: NC(=O)[C@H](CCCN=C(N)N)NC(=O)[C@H](Cc1c[nH]c2ccccc12)NC(=O)[C@H](Cc1c[nH]c2ccccc12)NC(=O)[C@H](CCCN=C(N)N)NC(=O)[C@@H](N)CCCN=C(N)N [RRWWR]

MIC [21]: 13.8 µM (≈ 15 µg/mL)
MIC [8]: 27.7 µM (≈ 30 µg/mL)
MIC [22]: 27.7 µM (≈ 30 µg/mL)
MIC [23]: 27.7 µM (≈ 30 µg/mL)
SMILES: CC[C@H](C)[C@H](NC(=O)[C@H](CO)NC(=O)[C@@H](NC(=O)[C@H](CCCCN)NC(=O)[C@H](Cc1ccccc1)NC(=O)[C@@H]1CCCN1C(=O)[C@@H](N)CCC(=O)O)[C@@H](C)CC)C(=O)N[C@@H](Cc1cnc[nH]1)C(=O)N[C@@H](CC(C)C)C(N)=O [EPFKISIHL]
